According to PubChem BioAssay (NCI):
Where “and” joins values, the source holds several entries; their conditions need not be identical. Identical values can stand only once.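 Each compound was tested at five concentrations against cells in 96-well plates for 48 hours. Here, GI50 denotes the concentration required for 50% inhibition of growth. Definition used: TGI = concentration required for complete inhibition of growth.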

Legend:
Experiment in all cases: NCI tumour cell line growth inhibition, 48 h
MDA-N = test system: MDA-N
LXFL 529 NSCLC = test system: LXFL 529 NSCLC
SNB-78 CNS = test system: SNB-78 CNS
DMS 273 small cell lung = test system: DMS 273 small cell lung
HOP-18 NSCLC = test system: HOP-18 NSCLC
XF 498 CNS = test system: XF 498 CNS
DLD-1 colon = test system: DLD-1 colon
KM20L2 colon = test system: KM20L2 colon
RXF-631 renal = test system: RXF-631 renal
P388/ADR leukemia = test system: P388/ADR leukemia

Compound	TGI (MDA-N)	TGI (LXFL 529 NSCLC)	TGI (SNB-78 CNS)	TGI (DMS 273 small cell lung)	TGI (HOP-18 NSCLC)	TGI (XF 498 CNS)	TGI (DLD-1 colon)	TGI (KM20L2 colon)	further results
COc1ccc2nc3cc([N+](=O)[O-])ccc3c(NCCCN(CCO)CCO)c2c1	8.93 µM	–	–	–	–	–	–	–	GI50 (MDA-N): 3.47 µM
Clc1ccc(C(c2ccc(Cl)cc2)N2CCNCC2)cc1	3.62 µM	–	–	–	–	–	–	–	–
CCOC(=O)c1cc2c(cn1)[nH]c1cccc(N)c12	–	> 100 µM	> 100 µM	> 100 µM	> 100 µM	> 100 µM	> 100 µM	–	–
O=c1cc(-c2ccccc2)nc(/C=C(\O)c2ccncc2)n1-c1ccccc1	–	> 100 µM	> 100 µM	> 100 µM	> 100 µM	–	> 100 µM	> 100 µM	–
COC(=O)[C@@]1(O)CC(C)C=C1C=O (stereo partly specified)	–	> 100 µM	> 100 µM	34.6 µM	> 100 µM	> 100 µM	> 100 µM	> 100 µM	–
CN(C(=O)C12C3(C(=O)C(C)(C)C)C4C5(C#N)C3C1(C(=O)C(C)(C)C)C5C42C(=O)C(C)(C)C)C(C)(C)C (stereo unspecified)	–	> 50 µM	> 50 µM	> 50 µM	–	> 50 µM	> 50 µM	> 50 µM	TGI (RXF-631 renal): > 50 µM
CCCCCCCCC(O)C#CC(N)=O (stereo unspecified)	–	23.3 µM	57.5 µM	20.3 µM	26 µM	30.8 µM	21.8 µM	35.1 µM	TGI (RXF-631 renal): 29.8 µM
NC(=S)N/N=C/c1ccc(O)cn1	> 1180 µM	–	–	31.1 µM and 37 µM and 16.7 µM	134 µM and 974 µM	94 µM and 168 µM	> 1500 µM	> 1500 µM	GI50 (DMS 273 small cell lung): 8.83 µM and 5.35 µM; GI50 (P388/ADR leukemia): 0.943 µM and 1.5 µM; TGI (P388/ADR leukemia): 154 µM and 24.5 µM; GI50 (HOP-18 NSCLC): 21 µM; GI50 (KM20L2 colon): 31.7 µM and 19.7 µM and 10.6 µM; GI50 (XF 498 CNS): 15.6 µM; GI50 (DLD-1 colon): 39.6 µM and 31 µM
Cc1ccc(-c2cc(=O)c3cc(C)c(C)c(C(=O)O)c3o2)cc1	–	> 100 µM	> 100 µM	> 100 µM	–	> 100 µM	> 100 µM	> 100 µM	TGI (RXF-631 renal): > 100 µM
C/C(CC(=O)Nc1ccc(Cl)cc1)=N\NC(=O)C[n+]1ccccc1	–	> 100 µM	> 100 µM	> 100 µM	–	> 100 µM	> 100 µM	> 100 µM	TGI (RXF-631 renal): > 100 µM
CC(C)(O)[C@@H]1CC[C@@]2(C)CCC[C@H](O)[C@H]2C1	–	> 100 µM	–	> 100 µM	> 100 µM	> 100 µM	> 100 µM	> 100 µM	TGI (RXF-631 renal): > 100 µM
O=C1C2CC=CCC2C(=O)C12CCc1ccccc12 (stereo unspecified)	–	> 100 µM	> 100 µM	> 100 µM	> 100 µM	> 100 µM	> 100 µM	> 100 µM	–
CCOC(=O)NC1=C(N2CC2)C(=O)C(NC(=O)OCC)=C(N2CC2)C1=O	5.41 µM	15 µM and 9.51 µM	24.2 µM and 28.5 µM	20.5 µM and 41.4 µM	24.4 µM and 49.9 µM	8.75 µM	38 µM and 78.9 µM	31.6 µM and 45.3 µM	GI50 (LXFL 529 NSCLC): 4.34 µM; GI50 (SNB-78 CNS): 9.36 µM; GI50 (DMS 273 small cell lung): 1.01 µM; TGI (P388/ADR leukemia): 17.6 µM; GI50 (HOP-18 NSCLC): 8.57 µM; GI50 (DLD-1 colon): 8.56 µM; GI50 (RXF-631 renal): 6.73 µM and 14.4 µM; TGI (RXF-631 renal): 30.3 µM and 54.6 µM
CC(=O)OC(C)(C)/C=C/C(=O)[C@](C)(O)[C@H]1[C@H](O)C[C@@]2(C)[C@@H]3CC=C4[C@@H](C[C@H](O)C(=O)C4(C)C)[C@]3(CO)C(=O)C[C@]12C	–	6.62 µM	0.983 µM and 3.92 µM	0.771 µM	0.646 µM and 1.32 µM	0.665 µM and 0.209 µM	15 µM	–	GI50 (LXFL 529 NSCLC): 0.09 µM; GI50 (SNB-78 CNS): 0.269 µM; GI50 (DMS 273 small cell lung): 0.324 µM; GI50 (HOP-18 NSCLC): 0.216 µM; GI50 (XF 498 CNS): 0.108 µM; GI50 (DLD-1 colon): 0.216 µM
CN(C)C(=S)/N=c1\ss/c(=N\C(=S)N(C)C)n1-c1ccc(Cl)cc1	–	> 100 µM	> 100 µM	> 100 µM	–	> 100 µM	–	> 100 µM	–
O=C(O)C1C(=O)Oc2c(cccc2[N+](=O)[O-])C1O (stereo unspecified)	> 100 µM	–	–	–	–	–	–	–	–
O=C(Nc1ccc2[nH]c(C(=O)N3CC(CCl)c4c3cc([N+](=O)[O-])c3ccccc43)cc2c1)c1cc2ccccc2o1 (stereo unspecified)	> 1100 µM	–	–	–	–	–	–	–	GI50 (MDA-N): > 1100 µM
O=C1[C@H]2ON(c3ccccc3)C(c3ccccc3F)[C@H]2C(=O)N1c1ccc(Cc2ccc(N3C(=O)[C@@H]4ON(c5ccccc5)C(c5ccccc5F)[C@@H]4C3=O)cc2)cc1 (stereo partly specified)	–	> 100 µM	> 100 µM	> 100 µM	> 100 µM	> 100 µM	> 100 µM	> 100 µM	TGI (RXF-631 renal): > 100 µM
CC(C)[NH-].CC(C)[NH-].O.O.[Cl][Pt+2][Cl]	106 µM	–	375 µM	–	337 µM	51.6 µM	238 µM	141 µM	GI50 (SNB-78 CNS): 54.5 µM; GI50 (P388/ADR leukemia): 8.11 µM; TGI (P388/ADR leukemia): 59.9 µM; GI50 (HOP-18 NSCLC): 60.5 µM; GI50 (KM20L2 colon): 15.2 µM; GI50 (XF 498 CNS): 16 µM; GI50 (DLD-1 colon): 45.1 µM; GI50 (MDA-N): 17.4 µM
Cc1ccc(C(=O)N2c3ccccc3N(C)n3cccc3C2CC(=O)O)cc1 (stereo unspecified)	–	> 100 µM	> 100 µM	> 100 µM	–	> 100 µM	> 100 µM	> 100 µM	–
COc1ccc2nc(NCN3C(=O)c4ccccc4C3=O)sc2c1	> 100 µM	–	–	–	–	–	–	–	–
CCOc1ccccc1N1C(=O)C(=O)C(c2nc3ccccc3o2)/C(=N\N)C1=O (stereo unspecified)	–	> 100 µM	> 100 µM	> 100 µM	–	–	> 100 µM	> 100 µM	–

Compound	TGI (MDA-N)	TGI (LXFL 529 NSCLC)	TGI (SNB-78 CNS)	TGI (DMS 273 small cell lung)	TGI (HOP-18 NSCLC)	TGI (XF 498 CNS)	TGI (DLD-1 colon)	TGI (KM20L2 colon)	further results
CC1=C(C(=O)Nc2ccc([N+](=O)[O-])cc2)C(c2ccccc2O)C(C(=O)Nc2ccc([N+](=O)[O-])cc2)=C(C)N1	–	48.7 µM	91.8 µM	47.1 µM	–	31.2 µM	57.8 µM	35.8 µM	TGI (RXF-631 renal): 36.6 µM
Nc1nc(NC2C=C(CO)C(O)C2O)c([N+](=O)[O-])c(=O)[nH]1 (stereo unspecified)	–	> 100 µM	> 100 µM	> 100 µM	> 100 µM	> 100 µM	> 100 µM	> 100 µM	–
N#C/C(=C\Nc1ccccn1)C(=O)c1ccco1	> 100 µM	–	–	–	–	–	–	–	–
COc1ccc(OC)c(NCC#N)c1	–	–	–	> 100 µM	> 100 µM	> 100 µM	–	> 100 µM	TGI (RXF-631 renal): > 100 µM
COC1=C2C[C@H](O)C(C)C[C@@]2(OC)OC1=O (stereo partly specified)	–	> 100 µM	> 100 µM	> 100 µM	–	> 100 µM	> 100 µM	–	TGI (RXF-631 renal): > 100 µM
O=C(NCCCCCCNC(=O)n1cc(F)c(=O)[nH]c1=O)NCCCOCCOCCOCCOCCOCCOCCOCCOCCOCCOCCOCCOCCOCCOCCOCCOCCOCCOCCOCCOCCOCCCNC(=O)C(O)C(O)C(OC1OC(CO)C(O)C(O)C1O)C(O)CO (stereo unspecified)	> 100 µM	–	> 100 µM	> 100 µM	> 100 µM	> 100 µM	> 100 µM	> 100 µM	TGI (P388/ADR leukemia): > 100 µM
NC(CC(=O)Nc1ccc(Cl)cc1)=Nc1ccccc1	–	> 100 µM	> 100 µM	> 100 µM	–	> 100 µM	> 100 µM	> 100 µM	–
CC(=O)OC1CC[C@@]2(C)C(CC[C@]3(C)C2CC=C2[C@@H]4CC(C)(C)CCC4(C)CCC23C)[C@@]1(C)C(=O)O (stereo partly specified)	64.8 µM	32.9 µM	48.8 µM	55.5 µM	43.7 µM	50.9 µM	29.3 µM	36.7 µM	TGI (RXF-631 renal): 44.7 µM
CCO/C=C1\N=C(C(Cl)c2ccccc2)OC1=O (stereo unspecified)	–	> 100 µM	> 100 µM	> 100 µM	–	> 100 µM	> 100 µM	> 100 µM	–
CC(=O)OCc1ccc(O)c(C=O)c1	> 100 µM	–	–	–	–	–	–	–	–
Cc1ccc(C(=O)N2CCN(C(=O)c3ccc(C)cc3)c3ccccc32)cc1	> 100 µM	> 100 µM	> 100 µM	> 35.8 µM	> 100 µM	70 µM	> 100 µM	> 32.6 µM	–
Clc1cccc(N2CCN(CCN3CCc4c([nH]c5ccccc45)C3c3cccnc3)CC2)c1 (stereo unspecified)	> 100 µM	> 100 µM	> 100 µM	> 100 µM	> 100 µM	> 100 µM	> 100 µM	77.8 µM	–
COc1cc([C@H]2c3cc4c(cc3[C@H](NCc3ccc([N+](=O)[O-])cc3)C3COC(=O)[C@H]32)OCO4)cc(OC)c1O (stereo partly specified)	–	> 76 µM	> 100 µM	> 100 µM	–	20.4 µM	> 43.5 µM	14.4 µM	–
CCOC(=O)[C@H]1CSC[C@@H](C(=O)OC)N1	–	> 100 µM	–	> 100 µM	–	–	> 100 µM	–	–
Fc1cccc(CSc2ncnc3c2ncn3C2CCCS2)c1 (stereo unspecified)	56.8 µM	–	–	–	–	–	–	–	–
CC(C)(c1ccc(Oc2ccc(C#N)c(C#N)c2)cc1)c1ccc(Oc2ccc(C#N)c(C#N)c2)cc1	–	> 100 µM	–	–	–	–	> 100 µM	> 100 µM	GI50 (LXFL 529 NSCLC): > 100 µM; GI50 (KM20L2 colon): > 100 µM; GI50 (DLD-1 colon): > 100 µM; GI50 (RXF-631 renal): > 100 µM; TGI (RXF-631 renal): > 100 µM
NC(=O)C(=Cc1ccc(CP(=O)(O)O)cc1)C(N)=O	–	> 100 µM	> 100 µM	> 100 µM	> 100 µM	> 100 µM	> 100 µM	> 100 µM	–
O=c1nc(NC(c2ccccc2)(c2ccccc2)c2ccccc2)ccn1CCO	–	> 100 µM	> 100 µM	–	> 100 µM	–	> 100 µM	> 100 µM	–
COc1cc(C=O)c(-c2cc3c(cc2C2(C)OCCS2)OCO3)c(OC)c1OC (stereo unspecified)	–	54 µM	> 239 µM	36.8 µM	–	37.1 µM	50.7 µM	9.17 µM	–
CC(=O)C1COC(O)C1C (stereo unspecified)	43.5 µM	–	–	–	–	–	–	–	–
COC(=O)c1ccc(NC(=O)c2cc(OC)c(OC)c(OC)c2)cc1	–	> 100 µM	–	> 100 µM	> 100 µM	–	> 100 µM	> 100 µM	–
OC(C1CO1)C(O)C1CO1 (stereo unspecified)	134 µM and 284 µM	–	150 µM	76.9 µM	150 µM	133 µM	> 150 µM	150 µM	TGI (P388/ADR leukemia): 150 µM; GI50 (MDA-N): 92.2 µM
